Assay results: ChEMBL document CHEMBL1154551, “Microbial transformation of benzosampangine” (2000)
≈ marks a conversion by molar mass, not a printed value.

Experiments:
Assay type in all cases: functional
[1] = test system: Cryptococcus neoformans; experiment: Antimicrobial activity against Cryptococcus neoformans
[2] = test system: Candida albicans; experiment: Antimicrobial activity against Candida albicans
[3] = test system: Aspergillus fumigatus; experiment: Antimicrobial activity against Aspergillus fumigatus

MIC [1] | MIC [2] | MIC [3] | SMILES
0.39 µg/mL (≈ 0.422 µM) | – | – | C[C@@H]1[C@H](O)[C@@H](C)/C=C/C=C/C=C/C=C/C=C/C=C/C=C/[C@H](O[C@@H]2O[C@H](C)[C@@H](O)[C@H](N)[C@@H]2O)C[C@@H]2O[C@](O)(C[C@@H](O)C[C@@H](O)[C@H](O)CC[C@@H](O)C[C@@H](O)CC(=O)O[C@H]1C)C[C@H](O)[C@H]2C(=O)O [AMPHOTERICIN B]
1.56 µg/mL (≈ 5.53 µM) | 0.39 µg/mL (≈ 1.38 µM) | 0.39 µg/mL (≈ 1.38 µM) | O=C1c2ccccc2-c2nccc3c2c1nc1ccccc13 [BENZOSAMPANGINE]
